Several values for one entry are separate records, joined by “and”; a condition that tells them apart may be missing. Equal entries are not always repeated. Where two headings read alike, the source gives them in different places.
Columns and labels:
[1] = test system: IL-1-induced COX-2 expression; test: IL-1-induced COX-2 expression in S112 human dermal fibroblasts (MIF-dependent event), flow cytometry; type: cell-based
Experimental: The activity of each compound was studied in a bioassay utilising MIF-dependent activation of human dermal fibroblasts. […] IL-1-induced COX-2 expression is therefore a MIF-dependent event. […] Prior to experimentation, cells were seeded at 10^5 cells/ml in RPMI/0.1% BSA for 18 hours. […] Cells permeabilised with 0.1% saponin were sequentially labelled with a mouse anti-human COX-2 monoclonal antibody and with sheep-anti-mouse F(ab)2 fragment labelled with fluoroscein isothiocyanate. Cellular fluorescence was determined using a flow cytometer. At least 5000 events were counted for each reading, each of which was performed in duplicate, and the results expressed in mean fluorescence intensity (MFI) after subtraction of negative control-labelled cell fluorescence. The effect of each compound was determined by subtracting the IL-1+compound-treated cell MFI from the IL-1-treated cell MFI and expressed as % inhibition. In each case the % inhibition of IL-1-induced COX2 expression is shown as the mean, or mean±SEM where results are available from multiple experiments.

[2] = test system: murine endotoxic shock model (LPS); test: murine endotoxic shock model, serum cytokines by ELISA; type: in vivo; details: mice
Experimental: The activity of 6,7-dihydroxynaphthalene-3-sulfonic acid (compound 6) was studied in the murine endotoxic shock model. This model has been previously shown to be dependent on MIF (35). […] Endotoxaemia was induced by intra-peritoneal injection of lipopolysaccharide (LPS) (15 mg/kg) in 400 μl saline. Mice were treated with a saline solution (control) only, a saline solution and LPS, or LPS and 6,7-dihydroxynaphthalene-2-sulfonic acid (compound 6) at a dose of 15 mg/kg body weight by intra-peritoneal injection at 24 hours, 12 hours and 1 hour before intra-peritoneal LPS injection. After 1.5 or 6 hours mice were humanely killed by CO2 inhalation then neck dislocation. Serum was obtained from blood obtained by cardiac puncture prior to death and measured for cytokines including interleukin 1 (IL-1) and interleukin 6 (IL-6) by ELISA. The production of IL-1 and IL-6 has been previously shown to be dependent on MIF (36).
The effect of compounds was further tested under a variety of conditions in animals exposed to endotoxic shock induced as above by the injection of 15 mg/kg LPS by intraperitoneal injection. In each case, compounds were administered by intraperitoneal injection at a dose of 15 mg/kg. Compound administration was associated with reductions in serum cytokine concentration under a variety of administration regimens.

[3] = test system: antigen-specific T cell activation (splenic T lymphocytes from mBSA-immunised mice); test: antigen-specific (mBSA) activation of splenic T lymphocytes in vitro, 3H-thymidine incorporation; type: cell-based, C57BL6/J mice; details: Mus musculus, T-cell, read-out: EC50 (T cell activation suppressed by 50% compared to vehicle-only-treated cells)
Experimental: After a further seven (7) days mice were killed and spleens collected aseptically into Hanks buffered saline solution (HBSS). A single cell suspension was prepared in Petri dishes by flushing DMEM through the organ using a 26G needle and 2 mL syringe. The resulting cell suspension was centrifuged for 5-7 minutes and supernatant discarded. Erythrocytes were lysed using a solution containing 0.579% NH4Cl, 0.000037% EDTA, and 0.1% NaHCO3 in a 37° C. water bath. Tubes were then filled with DMEM and centrifuged for 5-7 minutes. […] The specific stimulating antigen, mBSA, was then added at 10-50 μg/mL and plates incubated for 30 hours in a 37° C., 5% CO2 incubator. Tritiated^3H-thymidine was then added at a concentration of 0.5 μCi/well for a further 18 hours. Cells were harvested on a Packard cell harvester, and the harvested material added to 750 μL/tube scintillation fluid. Scintillation counts were read on a Wallac beta-emnission counter. […] Further compounds were also tested for their ability to inhibit antigen-specific T cell activation as a marker of the inhibition of the cytokine or biological activity of MIF using this assay.

[4] = test system: LPS-induced IL-1 release from peritoneal macrophages; test: LPS-induced interleukin 1 release from murine peritoneal macrophages, ELISA; type: cell-based, C57BL6/J mice
Experimental: C57BL6/J male mice were injected intraperitoneally with 2ml of thioglycollate. Five (5) days later peritoneal macrophages were collected by ravaging the peritoneum of anaesthetized mice with 3 ml of cold Hanks buffered saline solution. Cells from several mice were pooled, washed and re-suspended in DMEM supplemented with 5% FCS. Cells were plated in 96 well plastic tissue culture plates at 1×10^5 cells/well. Cells were treated with compound or vehicle for 1 hour in a 5% CO2 incubator at 37° C. Cells were then treated with LPS (10 ng/ml) and incubated for 24 hours. After 24 hours, 50 μl of supernatant from each well was carefully removed and transferred to ELISA plates. The concentration of interleukin 1 (IL-1 ) was measured by ELISA. The concentration of compound at which LPS-induced cytokine release was suppressed by 50% compared to vehicle-only-treated cells (EC50) was calculated using Prism® software. FIG. 13 and Table 8 provide the data for compound 6 tested in this assay.

**Q.** For `O=S(=O)(O)c1ccc2cc(O)c(O)cc2c1` [Compound 6, 6,7-dihydroxynaphthalene-2-sulfonic acid], which “inhibition of IL1-induced COX-2 expression, dose response (FIG. 3)” value ([1]; 0.01, 0.1, 1.0, 10 and 50 μM) is on record?
**A.** Its value is “Dose-dependent inhibition”.

**Q.** And the inhibition at 1 µM ([1]; Homo sapiens, Fibroblast, compound 1 uM, IL-1 0.1 ng/ml, 6 hours, S112 cells, read-out: % inhibition of IL-1-induced COX2 expression (Effect))?
**A.** Its inhibition at 1 µM is 16.4%.

**Q.** And the inhibition at 10 µM ([1]; Homo sapiens, Fibroblast, compound 10 uM, IL-1 0.1 ng/ml, 6 hours, S112 cells, read-out: % inhibition of IL-1-induced COX2 expression (Effect))?
**A.** The inhibition at 10 µM was 22.4%.

**Q.** And the inhibition at 25 µM ([1]; Homo sapiens, Fibroblast, compound 25 uM, IL-1 0.1 ng/ml, 6 hours, S112 cells, read-out: % inhibition of IL-1-induced COX2 expression (Effect))?
**A.** The inhibition at 25 µM was 21.3%.

**Q.** And the inhibition at 50 µM ([1]; Homo sapiens, Fibroblast, compound 50 uM, IL-1 0.1 ng/ml, 6 hours, S112 cells, read-out: % inhibition of IL-1-induced COX2 expression (Effect))?
**A.** The inhibition at 50 µM was 25.7%.

**Q.** And the inhibition at 100 µM ([1]; Homo sapiens, Fibroblast, compound 100 uM, IL-1 0.1 ng/ml, 6 hours, S112 cells, read-out: % inhibition of IL-1-induced COX2 expression (Effect))?
**A.** The inhibition at 100 µM was 24.4%.

**Q.** And the “% inhibition (IL-1 induced COX-2 expression)” value ([1]; Table 2 experiment 1: compound alone, 50 μM)?
**A.** The value was 38.0%.

**Q.** And the “Serum TNF, LPS plus compound” value ([2]; compound 15 mg/kg i.p. at −18 h before LPS 15 mg/kg i.p.)?
**A.** Its value is 3970 ± 2565 pg/mL.

**Q.** And the “Serum IL-6, LPS plus compound” value ([2]; compound 15 mg/kg i.p. at −24 h, −1 h before LPS 15 mg/kg i.p.)?
**A.** The value was 150 ± 19 ng/mL and 104 ± 11 ng/mL.

**Q.** What about the “serum IL-1, LPS plus compound” value ([2]; compound 15 mg/kg i.p. at −24 h, −12 h, −1 h before LPS 15 mg/kg i.p.) of the same compound?
**A.** The value was 257 ± 70 ng/mL.

**Q.** And the EC50 ([3]; mBSA 10 μg/ml)?
**A.** Its EC50 is 21.8 µM.

**Q.** And the EC50 ([3]; mBSA 50 μg/ml)?
**A.** The EC50 was 104 µM.

**Q.** And the “inhibition of macrophage IL-1 release, dose-response (FIG. 13)” value ([4]; LPS 10 ng/ml, p<0.02)?
**A.** Its value is “marked and statistically significant inhibition of macrophage IL-1 release”.

**Q.** And the EC50 ([4]; Mus musculus, Peritoneal macrophage, [LPS] 10 ng/mL, 24 hours, read-out: EC50 (LPS-induced IL-1 release suppressed by 50%))?
**A.** Its EC50 is 27 µM.

Reference: patent US20060106102A1, “Napththalene derivatives which inhibit the cytokine or biological activity of microphage migration inhibitory factor (mif)” (priority 2002, published 2006)
